pEC50: −log10 of the molar value. In brackets after ≈: the same amount, converted by molar mass. Activity calls are given as the source filed them. The calls are words filed in the database; no cut-off is given here.
Experiments:
[1] = Drug metabolism in human hepatocytes assessed as (2S,3S,4S,5R)-6-((2S,3R)-3-cyclopropyl-3-(3-((R)-5-(2-fluoro-5-methoxyphenyl)-2,3-dihydro-1H-inden-1-yloxy)phenyl)-2-methylpropanoyloxy)-3,4,5-trihydroxytetrahydro-2H-pyran-2-carboxylic acid formation at 5 uM measured after 2 hrs; assay type: ADME, cell-based, Hepatocyte
[2] = Total drug level in rat plasma at 10 mg/kg, po; assay type: ADME, organism-based; conditions: in vivo
[3] = Protein binding in rat plasma assessed as unbound fraction at 10 mg/kg, po; assay type: ADME, organism-based; conditions: in vivo
[4] = Oral bioavailability in Wistar Han rat at 2 mg/kg; assay type: ADME, organism-based; conditions: in vivo
[5] = Total drug level in rat plasma at 30 mg/kg, po; assay type: ADME, organism-based; conditions: in vivo
[6] = Unbound drug level in Wistar Han rat plasma at 1 mg/kg, iv or 2 mg/kg, po measured at 3 hrs; assay type: ADME, organism-based; conditions: in vivo
[7] = Total drug level in Wistar Han rat plasma at 1 mg/kg, iv or 2 mg/kg, po measured at 3 hrs; assay type: ADME, organism-based
[8] = target: T1, Free fatty acid receptor 1 (Homo sapiens, UniProt O14842); assay: Positive allosteric modulation of recombinant human GPR40 expressed in HEK293 cells assessed as increase in [3H]-myo-inositol phosphate accumulation measured after 60 mins in presence of 100% human serum by microbeta counting method; assay type: functional, cell-based
Rattus norvegicus [9] = assay: Hypoglycemic activity in Sprague-Dawley rat assessed as reduction in blood glucose AUC at 0.3 mg/kg, po pretreated for 1 hr followed by glucose challenge by OGTT relative to control; assay type: functional; design: scale not given: the % may be the effect or the level left
[10] = Clearance in Wistar Han rat at 1 mg/kg, iv or 2 mg/kg, po; assay type: ADME, organism-based; conditions: in vivo
[11] = target: Prostaglandin E2 receptor EP1 subtype (Homo sapiens) (UniProt P34995); assay: Inhibition of human prostanoid EP1 receptor at 10 uM relative to control
[12] = target: Sodium-dependent dopamine transporter (Homo sapiens) (UniProt Q01959); assay: Inhibition of human sodium dependent dopamine transporter at 10 uM relative to control
[13] = Dose normalized AUC in Wistar Han rat at 2 mg/kg, po; assay type: ADME, organism-based; conditions: in vivo
[14] = target: T1, Free fatty acid receptor 1; assay: Positive allosteric modulation of recombinant human GPR40 expressed in HEK293 cells assessed as increase in [3H]-myo-inositol phosphate accumulation measured after 60 mins in absence of human serum by microbeta counting method relative to control; assay type: functional, cell-based; design: concentration or dose not given beside the values
[15] = target: T1, Free fatty acid receptor 1; assay: Positive allosteric modulation of recombinant human GPR40 expressed in HEK293 cells assessed as increase in [3H]-myo-inositol phosphate accumulation measured after 60 mins in absence of human serum by microbeta counting method; assay type: functional, cell-based
Mus musculus = species: Mus musculus; assay: Glucose lowering effect in mouse assessed as increase in GLP-1 level; assay type: functional, organism-based
[16] = Protein binding in rat plasma assessed as unbound fraction at 0.3 mg/kg, po; assay type: ADME, organism-based; conditions: in vivo
Rattus norvegicus [17] = assay: Hypoglycemic activity in Sprague-Dawley rat assessed as reduction in blood glucose AUC at 30 mg/kg, po pretreated for 1 hr followed by glucose challenge by OGTT relative to control; assay type: functional; design: scale not given: the % may be the effect or the level left
[18] = Cmax in Wistar Han rat at 1 mg/kg, iv or 2 mg/kg, po; assay type: ADME, organism-based; conditions: in vivo
Rattus norvegicus [19] = assay: Hypoglycemic activity in Sprague-Dawley rat assessed as reduction in blood glucose AUC at 10 mg/kg, po pretreated for 1 hr followed by glucose challenge by OGTT relative to control; assay type: functional; design: scale not given: the % may be the effect or the level left
[20] = target: Prostaglandin E2 receptor EP3 subtype (Homo sapiens) (UniProt P43115); assay: Inhibition of human prostanoid EP3 receptor at 10 uM relative to control
[21] = target: Prostacyclin receptor (Homo sapiens) (UniProt P43119); assay: Inhibition of human prostanoid IP receptor at 10 uM relative to control
[22] = Solubility of the compound in FASSIF; assay type: physicochemical
[23] = target: Sodium-dependent noradrenaline transporter (Homo sapiens) (UniProt P23975); assay: Inhibition of human sodium dependent noradrenaline transporter at 10 uM relative to control
[24] = Drug level in rat plasma at 650 mg/kg; assay type: ADME, organism-based; conditions: in vivo
[25] = Protein binding in human plasma assessed as unbound fraction level; assay type: ADME, cell-free
[26] = Toxicity in rat assessed as change in clinical pathology at 600 mg/kg administered for 4 days; assay type: organism-based; conditions: in vivo, 96 h
[27] = Protein binding in rat plasma assessed as unbound fraction at 30 mg/kg, po; assay type: ADME, organism-based; conditions: in vivo
[28] = Volume of distribution in Wistar Han rat at 1 mg/kg, iv or 2 mg/kg, po; assay type: ADME, organism-based; conditions: in vivo
[29] = Total drug level in rat plasma at 3 mg/kg, po; assay type: ADME, organism-based; conditions: in vivo
[30] = Half-life in Wistar Han rat at 1 mg/kg, iv or 2 mg/kg, po; assay type: ADME, organism-based; conditions: in vivo
[31] = Drug level in Wistar Han rat assessed as unbound fraction at 1 mg/kg, iv or 2 mg/kg, po; assay type: ADME, organism-based; conditions: in vivo
Rattus norvegicus [32] = assay: Hypoglycemic activity in Sprague-Dawley rat assessed as reduction in blood glucose AUC at 3 mg/kg, po pretreated for 1 hr followed by glucose challenge by OGTT relative to control; assay type: functional; design: scale not given: the % may be the effect or the level left
[33] = Toxicity in rat assessed as change in body weight at 600 mg/kg administered for 4 days; assay type: organism-based; conditions: in vivo, 96 h
Rattus norvegicus [34] = assay: Hypoglycemic activity in Sprague-Dawley rat assessed as reduction in blood glucose AUC at 3 mg/kg, ip measured after 3 hrs by IPGTT relative to control; assay type: functional
[35] = target: Cysteinyl leukotriene receptor 2 (Homo sapiens) (UniProt Q9NS75); assay: Displacement of [3H]LTD4 from human full-length recombinant cysteinyl leukotriene type-2 receptor expressed in HEK293 cells at 10 uM measured after 60 mins by scintillation counting method relative to control; assay type: cell-based
[36] = target: Beta-3 adrenergic receptor (Homo sapiens) (UniProt P13945); assay: Inhibition of human beta3 adrenergic receptor at 10 uM relative to control
[37] = target: T1, Free fatty acid receptor 1; assay: Positive allosteric modulation of recombinant human GPR40 expressed in HEK293 cells assessed as increase in [3H]-myo-inositol phosphate accumulation measured after 60 mins in presence of 100% human serum by microbeta counting method relative to control; assay type: functional, cell-based
[38] = Total drug level in rat plasma at 1 mg/kg, po; assay type: ADME, organism-based; conditions: in vivo
[39] = Drug metabolism in rat hepatocytes assessed as (2S,3R)-3-cyclopropyl-3-(3-((R)-5-(2-fluoro-5-(sulfooxy)phenyl)-2,3-dihydro-1H-inden-1-yloxy)phenyl)-2-methylpropanoic acid formation at 5 uM measured after 2 hrs; assay type: ADME, cell-based, Hepatocyte
[40] = Ratio of compound effect for protein binding in rat plasma assessed as unbound fraction at 10 mg/kg, po to fEC50 for positive allosteric modulation of recombinant human GPR40 expressed in HEK293 cells in presence of 100% human serum
Rattus norvegicus [41] = assay: Hypoglycemic activity in Sprague-Dawley rat assessed as reduction in blood glucose AUC at 1 mg/kg, po pretreated for 1 hr followed by glucose challenge by OGTT relative to control; assay type: functional; design: scale not given: the % may be the effect or the level left
[42] = Total drug level in rat plasma at 0.3 mg/kg, po; assay type: ADME, organism-based; conditions: in vivo
[43] = Protein binding in rat plasma assessed as unbound fraction at 3 mg/kg, po; assay type: ADME, organism-based; conditions: in vivo
[44] = target: Peroxisome proliferator-activated receptor gamma (Homo sapiens) (UniProt P37231); assay: Inhibition of human PPARG at 10 uM relative to control
[45] = Ratio of compound effect for protein binding in rat plasma assessed as unbound fraction at 30 mg/kg, po to fEC50 for positive allosteric modulation of recombinant human GPR40 expressed in HEK293 cells in presence of 100% human serum
[46] = target: Acetylcholinesterase (Homo sapiens) (UniProt P22303); assay: Inhibition of human recombinant full length acetylcholine esterase expressed in HEK293 cells at 10 uM using acetylcholine as substrate preincubated for 15 mins followed by substrate addition measured after 20 mins by spectrophotometric analysis
[47] = target: Histamine H1 receptor (Homo sapiens) (UniProt P35367); assay: Inhibition of human histamine H1 receptor at 10 uM relative to control
[48] = Drug level in rat plasma at 100 mg/kg; assay type: ADME, organism-based; conditions: in vivo
[49] = Protein binding in rat plasma assessed as unbound fraction at 1 mg/kg, po; assay type: ADME, organism-based; conditions: in vivo
[50] = Toxicity in rat at 100 mg/kg administered for 4 days; assay type: organism-based; conditions: in vivo, 96 h
[51] = Drug level in human hepatocytes treated with (2S,3R)-3-cyclopropyl-3-(3-((R)-5-(2-fluoro-5-methoxyphenyl)-2,3-dihydro-1H-inden-1-yloxy)phenyl)-2-methylpropanoic acid at 5 uM measured after 2 hrs; assay type: ADME, cell-based, Hepatocyte
[52] = Stability of the compound in pH 7.4 potassium phosphate buffer at 10 uM measured after 5 hrs; assay type: physicochemical; conditions: pH 7.4, 5 h
[53] = Drug level in rat hepatocytes treated with (2S,3R)-3-cyclopropyl-3-(3-((R)-5-(2-fluoro-5-methoxyphenyl)-2,3-dihydro-1H-inden-1-yloxy)phenyl)-2-methylpropanoic acid at 5 uM measured after 2 hrs; assay type: ADME, cell-based, Hepatocyte

T1 sequence (O14842 whole entry): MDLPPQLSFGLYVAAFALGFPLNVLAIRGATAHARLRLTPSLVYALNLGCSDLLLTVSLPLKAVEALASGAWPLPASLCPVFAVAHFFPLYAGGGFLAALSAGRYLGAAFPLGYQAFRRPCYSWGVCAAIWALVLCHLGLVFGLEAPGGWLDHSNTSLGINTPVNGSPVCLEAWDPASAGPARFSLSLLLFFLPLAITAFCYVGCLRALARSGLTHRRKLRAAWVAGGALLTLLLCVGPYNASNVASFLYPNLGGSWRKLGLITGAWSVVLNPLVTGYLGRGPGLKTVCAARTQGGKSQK
Histamine H1 receptor (Homo sapiens), sequence (P35367 whole entry): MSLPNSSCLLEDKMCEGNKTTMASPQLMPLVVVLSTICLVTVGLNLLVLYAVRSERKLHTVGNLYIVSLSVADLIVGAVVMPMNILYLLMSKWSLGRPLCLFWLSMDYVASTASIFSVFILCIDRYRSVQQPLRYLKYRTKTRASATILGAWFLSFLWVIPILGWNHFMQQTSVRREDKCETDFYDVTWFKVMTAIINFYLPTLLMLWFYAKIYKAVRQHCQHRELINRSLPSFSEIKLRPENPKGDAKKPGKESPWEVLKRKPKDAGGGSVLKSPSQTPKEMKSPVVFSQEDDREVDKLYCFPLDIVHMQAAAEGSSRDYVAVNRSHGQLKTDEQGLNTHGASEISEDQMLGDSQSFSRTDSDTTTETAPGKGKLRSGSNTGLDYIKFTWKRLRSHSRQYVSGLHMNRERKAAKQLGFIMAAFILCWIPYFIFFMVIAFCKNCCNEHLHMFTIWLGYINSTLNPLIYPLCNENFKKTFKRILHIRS
Prostaglandin E2 receptor EP1 subtype (Homo sapiens), sequence (P34995 whole entry): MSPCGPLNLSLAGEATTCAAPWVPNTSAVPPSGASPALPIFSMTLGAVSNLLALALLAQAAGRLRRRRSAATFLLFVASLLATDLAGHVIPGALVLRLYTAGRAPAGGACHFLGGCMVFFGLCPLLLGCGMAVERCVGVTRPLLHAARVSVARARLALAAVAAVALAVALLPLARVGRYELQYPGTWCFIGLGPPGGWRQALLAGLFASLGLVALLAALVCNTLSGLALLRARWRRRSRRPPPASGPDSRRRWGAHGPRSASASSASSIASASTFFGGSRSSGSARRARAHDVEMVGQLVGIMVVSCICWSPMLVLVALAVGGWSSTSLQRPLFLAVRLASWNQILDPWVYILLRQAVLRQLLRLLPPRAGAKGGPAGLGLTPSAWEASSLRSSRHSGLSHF
Cysteinyl leukotriene receptor 2 (Homo sapiens), sequence (Q9NS75 whole entry): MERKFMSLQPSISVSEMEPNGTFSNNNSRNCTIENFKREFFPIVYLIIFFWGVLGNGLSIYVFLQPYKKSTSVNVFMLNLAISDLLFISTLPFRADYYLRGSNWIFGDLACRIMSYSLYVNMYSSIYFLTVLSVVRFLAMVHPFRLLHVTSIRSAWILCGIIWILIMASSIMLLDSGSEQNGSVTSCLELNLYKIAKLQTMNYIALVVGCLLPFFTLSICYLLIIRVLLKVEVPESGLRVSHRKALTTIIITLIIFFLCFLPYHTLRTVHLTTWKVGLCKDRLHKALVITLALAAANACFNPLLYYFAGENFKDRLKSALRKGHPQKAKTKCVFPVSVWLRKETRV
Sodium-dependent noradrenaline transporter (Homo sapiens), sequence (P23975 whole entry): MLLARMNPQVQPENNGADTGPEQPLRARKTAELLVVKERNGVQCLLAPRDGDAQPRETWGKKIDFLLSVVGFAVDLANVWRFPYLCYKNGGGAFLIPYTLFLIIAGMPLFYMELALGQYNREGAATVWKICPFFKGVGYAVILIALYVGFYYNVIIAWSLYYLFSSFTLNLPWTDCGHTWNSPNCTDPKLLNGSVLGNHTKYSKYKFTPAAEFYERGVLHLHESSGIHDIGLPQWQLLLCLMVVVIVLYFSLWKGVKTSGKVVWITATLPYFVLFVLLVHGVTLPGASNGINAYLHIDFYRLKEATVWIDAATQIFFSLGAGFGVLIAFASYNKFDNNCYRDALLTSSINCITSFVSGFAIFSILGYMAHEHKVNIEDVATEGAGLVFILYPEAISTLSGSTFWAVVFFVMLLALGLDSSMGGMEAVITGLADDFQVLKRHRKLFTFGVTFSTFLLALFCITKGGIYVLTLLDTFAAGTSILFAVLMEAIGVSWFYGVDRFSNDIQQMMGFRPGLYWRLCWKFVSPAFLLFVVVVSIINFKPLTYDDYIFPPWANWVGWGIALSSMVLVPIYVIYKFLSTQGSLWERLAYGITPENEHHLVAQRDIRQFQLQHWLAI
Beta-3 adrenergic receptor (Homo sapiens), sequence (P13945 whole entry, looked up): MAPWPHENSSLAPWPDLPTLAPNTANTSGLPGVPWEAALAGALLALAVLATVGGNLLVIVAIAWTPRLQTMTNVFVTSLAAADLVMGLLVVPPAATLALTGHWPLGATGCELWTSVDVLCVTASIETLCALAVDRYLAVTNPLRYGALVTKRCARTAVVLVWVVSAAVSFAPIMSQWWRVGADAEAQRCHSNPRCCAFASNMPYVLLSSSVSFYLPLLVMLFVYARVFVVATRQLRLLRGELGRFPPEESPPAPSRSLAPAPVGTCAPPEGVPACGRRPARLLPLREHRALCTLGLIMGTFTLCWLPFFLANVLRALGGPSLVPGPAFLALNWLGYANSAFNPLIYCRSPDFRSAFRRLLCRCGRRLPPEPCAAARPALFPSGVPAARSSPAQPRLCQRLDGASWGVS
Acetylcholinesterase (Homo sapiens), sequence (P22303 whole entry): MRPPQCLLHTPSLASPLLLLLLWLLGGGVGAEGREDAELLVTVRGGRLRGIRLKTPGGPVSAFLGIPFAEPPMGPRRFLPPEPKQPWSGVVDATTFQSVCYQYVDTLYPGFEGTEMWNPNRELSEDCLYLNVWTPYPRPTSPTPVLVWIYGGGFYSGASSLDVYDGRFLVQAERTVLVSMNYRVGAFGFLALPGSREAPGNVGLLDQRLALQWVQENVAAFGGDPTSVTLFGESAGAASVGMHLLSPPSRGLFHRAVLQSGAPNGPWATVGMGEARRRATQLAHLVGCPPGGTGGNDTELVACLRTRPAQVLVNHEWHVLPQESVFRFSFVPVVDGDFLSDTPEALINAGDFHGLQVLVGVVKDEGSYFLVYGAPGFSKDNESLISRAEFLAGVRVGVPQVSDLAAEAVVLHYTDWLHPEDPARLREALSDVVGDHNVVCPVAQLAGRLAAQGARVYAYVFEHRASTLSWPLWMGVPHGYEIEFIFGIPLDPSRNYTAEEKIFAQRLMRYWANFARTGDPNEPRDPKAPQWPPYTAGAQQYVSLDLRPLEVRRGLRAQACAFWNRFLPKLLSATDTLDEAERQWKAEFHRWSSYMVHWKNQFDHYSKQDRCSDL
Prostacyclin receptor (Homo sapiens), sequence (P43119 whole entry): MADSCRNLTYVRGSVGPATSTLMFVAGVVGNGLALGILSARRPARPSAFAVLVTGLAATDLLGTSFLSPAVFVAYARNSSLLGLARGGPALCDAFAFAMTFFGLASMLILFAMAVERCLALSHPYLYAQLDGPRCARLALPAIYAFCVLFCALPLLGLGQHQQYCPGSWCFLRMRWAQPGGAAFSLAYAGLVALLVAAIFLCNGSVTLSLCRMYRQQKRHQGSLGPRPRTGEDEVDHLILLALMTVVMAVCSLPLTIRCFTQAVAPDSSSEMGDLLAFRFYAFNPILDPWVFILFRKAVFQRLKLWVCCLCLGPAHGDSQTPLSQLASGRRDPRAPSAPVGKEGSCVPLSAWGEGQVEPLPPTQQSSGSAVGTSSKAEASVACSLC
Peroxisome proliferator-activated receptor gamma (Homo sapiens), sequence (P37231 whole entry): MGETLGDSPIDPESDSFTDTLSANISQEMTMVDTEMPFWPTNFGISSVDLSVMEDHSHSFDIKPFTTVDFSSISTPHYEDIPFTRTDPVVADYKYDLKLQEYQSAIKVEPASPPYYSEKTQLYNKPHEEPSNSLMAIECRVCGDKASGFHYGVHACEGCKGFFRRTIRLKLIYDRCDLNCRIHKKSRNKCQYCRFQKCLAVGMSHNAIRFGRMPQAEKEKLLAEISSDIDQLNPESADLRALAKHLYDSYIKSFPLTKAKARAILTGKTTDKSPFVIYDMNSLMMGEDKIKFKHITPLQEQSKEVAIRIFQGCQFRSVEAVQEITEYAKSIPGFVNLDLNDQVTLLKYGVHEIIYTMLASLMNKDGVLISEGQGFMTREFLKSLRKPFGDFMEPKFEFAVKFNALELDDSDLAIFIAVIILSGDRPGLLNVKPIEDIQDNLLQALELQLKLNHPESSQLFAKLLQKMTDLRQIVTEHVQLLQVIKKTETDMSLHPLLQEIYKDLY
Sodium-dependent dopamine transporter (Homo sapiens), sequence (Q01959 whole entry): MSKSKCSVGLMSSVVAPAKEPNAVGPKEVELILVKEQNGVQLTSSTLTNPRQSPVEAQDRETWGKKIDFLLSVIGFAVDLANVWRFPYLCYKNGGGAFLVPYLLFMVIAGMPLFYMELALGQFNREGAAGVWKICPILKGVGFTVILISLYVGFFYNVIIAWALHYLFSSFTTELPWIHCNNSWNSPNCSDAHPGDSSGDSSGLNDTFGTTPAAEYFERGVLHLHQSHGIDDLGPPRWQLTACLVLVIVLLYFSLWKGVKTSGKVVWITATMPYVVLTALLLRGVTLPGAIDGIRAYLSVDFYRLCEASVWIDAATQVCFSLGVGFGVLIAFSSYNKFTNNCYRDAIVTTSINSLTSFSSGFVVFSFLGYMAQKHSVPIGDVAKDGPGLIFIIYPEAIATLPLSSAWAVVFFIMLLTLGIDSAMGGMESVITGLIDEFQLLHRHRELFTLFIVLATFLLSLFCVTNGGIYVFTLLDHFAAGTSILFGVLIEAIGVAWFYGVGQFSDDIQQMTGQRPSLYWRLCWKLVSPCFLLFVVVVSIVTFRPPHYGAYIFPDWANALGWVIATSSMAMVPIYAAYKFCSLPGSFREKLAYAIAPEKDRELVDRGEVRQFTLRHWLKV

SMILES: COc1ccc(F)c(-c2ccc3c(c2)CC[C@H]3Oc2cccc([C@H](C3CC3)[C@H](C)C(=O)O)c2)c1
- Drug metabolism [1]: Metabolite_Detected
- concentration [2]: 7610 nM
- Cp(f) [3]: 0.76 nM
- bioavailability [4]: 81%
- concentration [5]: 17300 nM
- Cp(f) [6]: 0.16 nM
- concentration at 3 h [7]: 1600 nM
- pEC50 [8]: 6.41
- fEC50 [8]: 0.04 nM
- Activity (Rattus norvegicus [9]): 19%
- clearance [10]: 0.168 L/h/kg
- inhibition [11]: 81%
- inhibition [12]: 89%
- AUC/dose [13]: 21.5 µM·h
- Activity [14]: 323%
- pEC50 [15]: 8.35
- Activity (Mus musculus): Active
- Cp(f) [16]: 0.02 nM
- Activity (Rattus norvegicus [17]): 114%
- Cmax [18]: 2900 nM
- Activity (Rattus norvegicus [19]): 105%
- inhibition [20]: 80%
- inhibition [21]: 68%
- solubility [22]: 153 µM (≈ 70.5 µg/mL)
- inhibition [23]: 69%
- concentration [24]: 1900 nM
- Fu [25]: 0.01%
- Activity [26]: Toxic
- Cp(f) [27]: 1.73 nM
- Vd [28]: 0.33 L/kg
- concentration [29]: 4470 nM
- half-life [30]: 1.8 h
- Fu [31]: 0.01%
- Activity (Rattus norvegicus [32]): 82%
- Activity [33]: Toxic
- inhibition in vivo at 3 mg/kg (Rattus norvegicus [34]): 71%
- inhibition [35]: 71%
- inhibition [36]: 55%
- Activity [37]: 205%
- concentration [38]: 689 nM
- Drug metabolism [39]: Metabolite_Detected
- Ratio [40]: 19
- Activity (Rattus norvegicus [41]): 40%
- concentration [42]: 207 nM
- Cp(f) [43]: 0.45 nM
- inhibition [44]: 87%
- Ratio [45]: 42
- inhibition [46]: 52%
- inhibition [47]: 70%
- concentration [48]: 1240 nM
- Cp(f) [49]: 0.069 nM
- Activity [50]: Non-Toxic

SMILES: C[C@H](C(=O)OC1O[C@H](C(=O)O)[C@@H](O)[C@H](O)[C@H]1O)[C@H](c1cccc(O[C@@H]2CCc3cc(-c4cc(O)ccc4F)ccc32)c1)C1CC1 (stereo not given in full)
- Drug metabolism [51]: Metabolite_Detected
- Stability [52]: Stable

SMILES: C[C@H](C(=O)O)[C@H](c1cccc(O[C@@H]2CCc3cc(-c4cc(OS(=O)(=O)O)ccc4F)ccc32)c1)C1CC1
- Drug metabolism [53]: Metabolite_Detected

From ChEMBL document CHEMBL4387733, “Design, synthesis and biological evaluation of indane derived GPR40 agoPAMs” (Bioorg Med Chem Lett, 2019)
